Assay results taken from the NIST ThermoML archive (doi:10.1021/je900387e).
Numbers after ± are expanded uncertainties.

Experiment: xn = mol fraction of the nth substance listed
Details: Liquid, Pycnometric method

CCCCBr [1-bromobutane] + O=C=O
Details | mass density [kg/m3]
322.7 K, 11600 kPa, x1 = 0.0683 | 826 ± 4
322.7 K, 11640 kPa, x1 = 0.1495 | 987 ± 4
322.7 K, 11680 kPa, x1 = 0.0989 | 884 ± 4
322.7 K, 11910 kPa, x1 = 0.0461 | 797 ± 4
322.7 K, 11910 kPa, x1 = 0.0683 | 832 ± 4
322.7 K, 11990 kPa, x1 = 0.1495 | 990 ± 4
322.7 K, 12130 kPa, x1 = 0.0989 | 890 ± 4
322.7 K, 12220 kPa, x1 = 0.0683 | 838 ± 4
322.7 K, 12290 kPa, x1 = 0.1495 | 994 ± 4
322.7 K, 12570 kPa, x1 = 0.0683 | 845 ± 4
322.7 K, 12610 kPa, x1 = 0.0989 | 897 ± 4
322.7 K, 12640 kPa, x1 = 0.0461 | 814 ± 4
322.7 K, 12660 kPa, x1 = 0.1495 | 997 ± 4
322.7 K, 12900 kPa, x1 = 0.0683 | 850 ± 4
322.7 K, 13010 kPa, x1 = 0.1495 | 1000 ± 4
322.7 K, 13110 kPa, x1 = 0.0989 | 903 ± 4
322.7 K, 13210 kPa, x1 = 0.0461 | 826 ± 4
322.7 K, 13280 kPa, x1 = 0.0683 | 857 ± 4
322.7 K, 13490 kPa, x1 = 0.1495 | 1004 ± 4
322.7 K, 13640 kPa, x1 = 0.0989 | 910 ± 4
322.7 K, 13730 kPa, x1 = 0.0683 | 864 ± 4
322.7 K, 13820 kPa, x1 = 0.1495 | 1008 ± 4
322.7 K, 13830 kPa, x1 = 0.0461 | 838 ± 4
322.7 K, 13960 kPa, x1 = 0.0683 | 867 ± 4
322.7 K, 14210 kPa, x1 = 0.0989 | 916 ± 4
322.7 K, 14230 kPa, x1 = 0.1495 | 1011 ± 4
322.7 K, 14620 kPa, x1 = 0.1495 | 1015 ± 4
322.7 K, 14880 kPa, x1 = 0.0989 | 924 ± 4
322.7 K, 15120 kPa, x1 = 0.1495 | 1018 ± 4
322.7 K, 15160 kPa, x1 = 0.0989 | 926 ± 4
327.6 K, 8820 kPa, x1 = 0.1495 | 922 ± 4
327.6 K, 8950 kPa, x1 = 0.1495 | 924 ± 4
327.6 K, 9080 kPa, x1 = 0.0245 | 359 ± 4
327.6 K, 9100 kPa, x1 = 0.0989 | 786 ± 4
327.6 K, 9110 kPa, x1 = 0.0245 | 362 ± 4
327.6 K, 9140 kPa, x1 = 0.1495 | 927 ± 4
327.6 K, 9170 kPa, x1 = 0.0245 | 369 ± 4
327.6 K, 9220 kPa, x1 = 0.0245 | 375 ± 4
327.6 K, 9230 kPa, x1 = 0.0989 | 791 ± 4
327.6 K, 9270 kPa, x1 = 0.0245 | 382 ± 4
327.6 K, 9330 kPa, x1 = 0.0245 | 389 ± 4
327.6 K, 9340 kPa, x1 = 0.1495 | 930 ± 4
327.6 K, 9350 kPa, x1 = 0.0683 | 677 ± 4
327.6 K, 9360 kPa, x1 = 0.0461 | 555 ± 4
327.6 K, 9380 kPa, x1 = 0.0245 | 396 ± 4
327.6 K, 9380 kPa, x1 = 0.0461 | 559 ± 4
327.6 K, 9380 kPa, x1 = 0.0683 | 680 ± 4
327.6 K, 9390 kPa, x1 = 0.0461 | 563 ± 4
327.6 K, 9390 kPa, x1 = 0.0989 | 796 ± 4
327.6 K, 9420 kPa, x1 = 0.0245 | 401 ± 4
327.6 K, 9430 kPa, x1 = 0.0461 | 569 ± 4
327.6 K, 9460 kPa, x1 = 0.0245 | 406 ± 4
327.6 K, 9470 kPa, x1 = 0.0461 | 577 ± 4
327.6 K, 9470 kPa, x1 = 0.0683 | 688 ± 4
327.6 K, 9490 kPa, x1 = 0.0461 | 584 ± 4
327.6 K, 9520 kPa, x1 = 0.0245 | 414 ± 4
327.6 K, 9520 kPa, x1 = 0.1495 | 933 ± 4
327.6 K, 9540 kPa, x1 = 0.0989 | 801 ± 4
327.6 K, 9560 kPa, x1 = 0.0461 | 591 ± 4
327.6 K, 9570 kPa, x1 = 0.0683 | 696 ± 4
327.6 K, 9580 kPa, x1 = 0.0245 | 423 ± 4
327.6 K, 9650 kPa, x1 = 0.0245 | 431 ± 4
327.6 K, 9650 kPa, x1 = 0.0461 | 599 ± 4
327.6 K, 9700 kPa, x1 = 0.0683 | 705 ± 4
327.6 K, 9700 kPa, x1 = 0.0989 | 806 ± 4
327.6 K, 9710 kPa, x1 = 0.0461 | 606 ± 4
327.6 K, 9710 kPa, x1 = 0.1495 | 936 ± 4
327.6 K, 9720 kPa, x1 = 0.0245 | 440 ± 4
327.6 K, 9760 kPa, x1 = 0.0461 | 615 ± 4
327.6 K, 9790 kPa, x1 = 0.0245 | 449 ± 4
327.6 K, 9830 kPa, x1 = 0.0461 | 623 ± 4
327.6 K, 9830 kPa, x1 = 0.0683 | 714 ± 4
327.6 K, 9860 kPa, x1 = 0.0245 | 459 ± 4
327.6 K, 9890 kPa, x1 = 0.0989 | 811 ± 4
327.6 K, 9890 kPa, x1 = 0.1495 | 939 ± 4
327.6 K, 9920 kPa, x1 = 0.0461 | 631 ± 4
327.6 K, 9950 kPa, x1 = 0.0245 | 469 ± 4
327.6 K, 10000 kPa, x1 = 0.0683 | 723 ± 4
327.6 K, 10010 kPa, x1 = 0.0461 | 640 ± 4
327.6 K, 10030 kPa, x1 = 0.0245 | 480 ± 4
327.6 K, 10050 kPa, x1 = 0.0245 | 484 ± 4
327.6 K, 10060 kPa, x1 = 0.0245 | 486 ± 4
327.6 K, 10070 kPa, x1 = 0.1495 | 942 ± 4
327.6 K, 10080 kPa, x1 = 0.0989 | 817 ± 4
327.6 K, 10120 kPa, x1 = 0.0461 | 649 ± 4
327.6 K, 10190 kPa, x1 = 0.0683 | 733 ± 4
327.6 K, 10240 kPa, x1 = 0.0461 | 658 ± 4
327.6 K, 10290 kPa, x1 = 0.0989 | 822 ± 4
327.6 K, 10310 kPa, x1 = 0.1495 | 945 ± 4
327.6 K, 10360 kPa, x1 = 0.0461 | 668 ± 4
327.6 K, 10380 kPa, x1 = 0.0683 | 742 ± 4
327.6 K, 10500 kPa, x1 = 0.0461 | 678 ± 4
327.6 K, 10510 kPa, x1 = 0.0989 | 828 ± 4
327.6 K, 10560 kPa, x1 = 0.1495 | 949 ± 4
